The subject of the assay is C57BL/6 mice, diffuse TBI. Put plainly: Iba1 microglial skeletal analysis after TBI. The class given is in vivo, mouse. Conditions: 10 mg/kg i.p. 30 min prior to TBI, 15 DPI, cortex. The protocol: 30 min prior to TBI or sham injury, mice were randomly assigned to a therapeutic group and received an intraperitoneal injection of 2LS80Mel (10 mg/kg) or sterile saline (0.25 ml). Groups were as follows: TBI-2LS80Mel n = 17; TBI-vehicle n = 17; sham n = 22 (vehicle n = 11, 2LS80Mel n = 11).
For injury induction 24 h post-surgery, mice were re-anesthetized with 5% isoflurane delivered for 3 min. The cap was removed from the injury-hub assembly and the dura was visually inspected through the hub to ensure it was intact with no debris. The hub was then filled with normal saline and attached to an extension tube connected to the male end of the fluid percussion device (Custom Design and Fabrication, Virginia Commonwealth University, Richmond, VA). An injury of moderate severity for our injury model (1.4 atm) was administered by releasing the pendulum onto the fluid-filled cylinder following the return of a toe-pinch response. Sham mice underwent the same procedure except the pendulum was not released. Injured mice were monitored for presence of a forearm fencing response and righting reflex times were recorded as indicators of injury severity ([Hosseini and Lifshitz, 2009]). […] After spontaneously righting, mice were placed in a heated recovery cage and monitored until they were ambulatory (approximately 5–15 min) before being returned to their piezoelectric sleep cage (see below). […]

This passage reports Microglial ramification results from publication PMC8887546, “Design and Synthesis of Brain Penetrant Glycopeptide Analogues of PACAP With Neuroprotective Potential for Traumatic Brain Injury and Parkinsonism” (Frontiers in drug discovery, 2022).

On to `CC[C@H](C)[C@H](NC(=O)CNC(=O)[C@H](CC(=O)O)NC(=O)[C@H](CO)NC(=O)[C@@H](N)Cc1c[nH]cn1)C(=O)N[C@@H](Cc1ccccc1)C(=O)N[C@H](C(=O)N[C@@H](CC(=O)O)C(=O)N[C@@H](CO)C(=O)N[C@@H](Cc1ccc(O)cc1)C(=O)N[C@@H](CO)C(=O)N[C@@H](CCCNC(=N)N)C(=O)N[C@@H](Cc1ccc(O)cc1)C(=O)N[C@@H](CCCNC(=N)N)C(=O)N[C@@H](CCCCN)C(=O)N[C@@H](CCC(N)=O)C(=O)N[C@@H](CC(C)C)C(=O)N[C@@H](C)C(=O)N[C@H](C(=O)N[C@@H](CCCCN)C(=O)N[C@@H](CCCCN)C(=O)N[C@@H](Cc1ccc(O)cc1)C(=O)N[C@@H](CC(C)C)C(=O)N[C@@H](C)C(=O)N[C@@H](C)C(=O)N[C@H](C(=O)N[C@@H](CC(C)C)C(=O)N[C@@H](CO[C@@H]1O[C@H](CO[C@H]2O[C@H](CO)[C@H](O)[C@H](O)[C@H]2O)[C@@H](O)[C@H](O)[C@H]1O)C(N)=O)C(C)C)C(C)C)[C@@H](C)O` [Compound 2LS80Mel], for which the Microglial ramification entry was “no significant differences”.
